Experiment [1] has as its system MCF7. Briefly: Inhibition of MCF-7 human breast carcinoma cell proliferation. The class given is functional.
The target of experiment [2] is T1, Cyclin-dependent kinase 1/cyclin B1 (Homo sapiens, UniProt P06493+P14635). Briefly: Inhibition of starfish oocyte (Marthasteria glacialis) Cyclin-dependent kinase 1-cyclin B1 at a concentration of 100 uM. The class given is protein-complex assay. Conditions: Asteroidea.
Target sequence in this assay (P06493 whole entry, looked up): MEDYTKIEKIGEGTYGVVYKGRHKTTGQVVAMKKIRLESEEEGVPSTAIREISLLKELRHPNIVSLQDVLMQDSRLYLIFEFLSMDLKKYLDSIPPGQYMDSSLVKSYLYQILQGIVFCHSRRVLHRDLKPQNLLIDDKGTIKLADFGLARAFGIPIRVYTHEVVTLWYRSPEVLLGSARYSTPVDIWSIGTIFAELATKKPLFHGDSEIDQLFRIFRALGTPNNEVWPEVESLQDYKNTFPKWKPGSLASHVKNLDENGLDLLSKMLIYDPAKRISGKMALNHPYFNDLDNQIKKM
Target sequence in this assay (P14635 whole entry, looked up): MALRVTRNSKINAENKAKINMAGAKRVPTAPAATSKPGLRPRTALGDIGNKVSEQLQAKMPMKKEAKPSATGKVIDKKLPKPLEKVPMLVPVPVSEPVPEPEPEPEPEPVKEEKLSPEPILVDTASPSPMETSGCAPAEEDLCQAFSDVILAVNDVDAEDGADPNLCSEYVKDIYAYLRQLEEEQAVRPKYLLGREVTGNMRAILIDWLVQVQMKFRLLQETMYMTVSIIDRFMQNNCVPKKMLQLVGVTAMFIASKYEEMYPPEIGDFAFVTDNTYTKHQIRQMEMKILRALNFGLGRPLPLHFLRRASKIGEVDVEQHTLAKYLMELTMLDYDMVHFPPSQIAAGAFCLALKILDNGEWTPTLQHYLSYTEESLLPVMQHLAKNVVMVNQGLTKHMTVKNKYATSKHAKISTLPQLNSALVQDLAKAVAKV
For experiment [3], the target named is T2, Cyclin-dependent kinase 2/cyclin A (Homo sapiens) (UniProt P24941+P20248+P78396). Briefly: Inhibition of human Cyclin-dependent kinase 2-cyclin A3 at a concentration of 100 uM. The class given is protein-complex assay.
For experiment [4], the target named is T2, Cyclin-dependent kinase 2/cyclin A (Homo sapiens). Briefly: Inhibition of human Cyclin-dependent kinase 2-cyclin A at a concentration of 100 uM. The format is protein-complex assay.
For experiment [5], the target named is T3, Cyclin-dependent kinase 2/cyclin A (Homo sapiens, UniProt P24941). Briefly: Inhibition of human Cyclin-dependent kinase 2-cyclin A. The class given is protein-complex assay.
In experiment [6] the target is T2, Cyclin-dependent kinase 2/cyclin A (Homo sapiens). Briefly: Inhibition of human Cyclin-dependent kinase 2-cyclin A at 100 uM. The class given is protein-complex assay.
For experiment [7] the target is unchanged. Briefly: Inhibition of Cyclin-dependent kinase 2-cyclin A at 10 uM. The class given is protein-complex assay.
Experiment [8] addresses T1, Cyclin-dependent kinase 1/cyclin B1. Briefly: Inhibition of starfish oocyte (Marthasteria glacialis) Cyclin-dependent kinase 1-cyclin B1 at a concentration of 10 uM. Conditions: Asteroidea. The class given is protein-complex assay.
Target sequence in this assay (P06493 whole entry, looked up): as the sequence (P06493 whole entry, looked up) above
Target sequence in this assay (P14635 whole entry, looked up): as the sequence (P14635 whole entry, looked up) above
Experiment [9] concerns the target T2, Cyclin-dependent kinase 2/cyclin A (Homo sapiens). Briefly: Inhibition of human Cyclin-dependent kinase 2-cyclin A at a concentration of 10 uM. The format is protein-complex assay.
The target is the same in experiment [10]. Briefly: Inhibition of human Cyclin-dependent kinase 2-cyclin A3 at 100 uM. The class given is protein-complex assay.
The target in experiment [11] is T1, Cyclin-dependent kinase 1/cyclin B1. Briefly: Inhibition of starfish oocyte (Marthasteria glacialis) Cyclin-dependent kinase 1-cyclin B1. The class given is protein-complex assay, Asteroidea.
Target sequence in this assay (P06493 whole entry): as the sequence (P06493 whole entry, looked up) above
Target sequence in this assay (P14635 whole entry): as the sequence (P14635 whole entry, looked up) above
The target of experiment [12] is T3, Cyclin-dependent kinase 2/cyclin A. Briefly: Inhibition of human Cyclin-dependent kinase 2-cyclin A3. The format is protein-complex assay.
In experiment [13] the target is T2, Cyclin-dependent kinase 2/cyclin A (Homo sapiens). Briefly: Inhibition of Cyclin-dependent kinase 2-cyclin A at 100 uM. The class given is protein-complex assay.

The structures appear in SMILES notation.

As a reminder, the GI50 is the concentration that inhibits growth by half. As a reminder, the inhibition is how much of the control response was suppressed. Consider `COC1OC(COc2nc(N)nc3[nH]cnc23)C2OC(C)(C)OC12` (stereo not drawn), for which, in experiment [1], the GI50 was greater than 100 µM. In addition, the inhibition in experiment [2] is 10%; in [3], 16%.

Regarding `CC(=O)COc1nc(N)nc2[nH]cnc12`, the figures for the inhibition in experiment [4] and in experiment [2] were 16% and 15%, respectively.

What is called IC50 is the concentration that inhibits the measured activity by half. `C=C(CC)COc1nc(N)nc2[nH]cnc12` came in with a concentration for half-maximal inhibition (IC50) in experiment [5] of 21 µM.

In [5], `CCC(C)COc1nc(N)nc2nc[nH]c12` (stereo not drawn) showed a concentration for half-maximal inhibition (IC50) of 15 µM.

As to `Cc1cccc(COc2nc(N)nc3nc[nH]c23)c1`, the values for the inhibition in experiment [6] and in experiment [2] were 52% and 70%, respectively.

In the case of `COc1cccc(COc2nc(N)nc3[nH]cnc23)c1`, the figures for the inhibition in experiment [2] and in experiment [7] were 65% and 49%, respectively.

Consider `CCCCOc1nc(N)nc2[nH]cnc12`, for which the IC50 in experiment [5] worked out at 48 µM.

In experiment [5], `CCOC.CCOC(C)COc1[nH]c(N)nc2ncnc1-2` (stereo not drawn) showed a half-maximal inhibitory concentration (IC50) of 33 µM.

In the case of `CCCOc1nc(N)nc2nc[nH]c12`, the IC50 in [5] was 67 µM. Compared with the last compound, the IC50 is about 2-fold higher.

For the compound `Nc1nc(OCc2cccc3ccccc23)c2nc[nH]c2n1`, the inhibition in [8] is 10%; in experiment [9], 3%.

`Nc1nc(OCC2CCCNC2)c2nc[nH]c2n1` (stereo not drawn): the inhibition was 70% in experiment [2] and 64% in experiment [3].

In experiment [5], `C=C(C)COc1nc(N)nc2nc[nH]c12` showed an IC50 of 35 µM.

`Nc1nc(OCC2CCCO2)c2[nH]cnc2n1` (stereo not drawn): the inhibition was determined as 40% in [4] and 49% in experiment [2].

`C=C(COc1nc(N)nc2nc[nH]c12)c1ccccc1` came in with a GI50 in [1] of 28 µM. For the same compound, the IC50 in [5] amounted to 34 µM.

`CC(C)C(=O)COc1nc(N)nc2nc[nH]c12`: the inhibition was determined as 31% in [4] and 41% in [2].

In [5], `Nc1nc(OCCc2ccccc2)c2nc[nH]c2n1` yielded a 50% inhibitory concentration (IC50) of 65 µM.

With `Nc1nc(OCC23CC4CC(CC(C4)C2)C3)c2nc[nH]c2n1`, the inhibition in experiment [8] was found to be 55%; in experiment [9], 29%.

In the case of `C#CCOc1nc(N)nc2nc[nH]c12`, the IC50 in experiment [5] is 90 µM.

Consider `Nc1nc(OCC2CC=CCC2)c2[nH]cnc2n1` (stereo not drawn), for which, in experiment [1], halving of growth (GI50) required 37 µM. This compound also came in with an IC50 in experiment [5] of 13 µM.

For `Nc1nc(OCC2CCNCC2)c2nc[nH]c2n1`, the inhibition in experiment [2] was 52%; in experiment [3], 43%.

Regarding `Nc1nc(OCC2COC3(CCCCC3)O2)c2[nH]cnc2n1` (stereo not drawn), the inhibition was 26% in experiment [2] and 29% in experiment [3].

In experiment [5], `Nc1nc(OCCC2CCCCC2)c2nc[nH]c2n1` showed an IC50 of 44 µM.

In [5], `CCCCCOc1nc(N)nc2[nH]cnc12` had an IC50 of 49 µM.

In experiment [5], `Nc1nc(OCC2=CCCCC2)c2[nH]cnc2n1` gave an IC50 of 22 µM.

`CC1(C)OC[C@H](COc2nc(N)nc3[nH]cnc23)O1`: the inhibition is 31% in [2] and 27% in experiment [3].

`Nc1nc(OCC2CCCC2)c2nc[nH]c2n1` came in with a half-inhibitory concentration (IC50) in experiment [5] of 21 µM.

Consider `Nc1nc(OCC(O)CO)c2nc[nH]c2n1` (stereo not drawn), for which the inhibition in experiment [4] is 33%; in experiment [2], 35%.

Consider `CCC(C)Oc1nc(N)nc2[nH]cnc12` (stereo not drawn), for which the IC50 in experiment [5] worked out at 25 µM.

Compound `CC(C)CCOc1nc(N)nc2nc[nH]c12` came in with an IC50 in experiment [5] of 26 µM.

With `C=CCCCCOc1nc(N)nc2[nH]cnc12`, the IC50 in experiment [5] came to 47 µM.

On to `Nc1nc(OCC2CCCCC2)c2nc[nH]c2n1`, for which the GI50 in [1] worked out at 20 µM. This lies in the double-digit micromolar range.

Regarding `Nc1nc(OCC2CCCCO2)c2nc[nH]c2n1` (stereo not drawn), the inhibition amounted to 50% in [2] and 43% in experiment [10].

In [5], `C=C(COc1nc(N)nc2[nH]cnc12)C(C)C` returned an IC50 of 16 µM.

In the case of `CC1(C)OCC(COc2nc(N)nc3[nH]cnc23)O1` (stereo not drawn), the inhibition amounted to 43% in experiment [2] and 36% in [3].

In turn, `CC(C)Oc1[nH]c(N)nc2ncnc1-2` returned a 50% inhibitory concentration (IC50) in experiment [5] of 75 µM.

In [5], `C=CCOc1nc(N)nc2nc[nH]c12` gave an IC50 of 78 µM.

Turning to `Nc1nc(OC[C@H]2CCC(=O)N2)c2nc[nH]c2n1`, the inhibition in experiment [2] came to 50%; in experiment [3], 35%.

`CCC(COc1nc(N)nc2[nH]cnc12)(OC)OC`: the values for the concentration for half-maximal inhibition (IC50) in experiment [5] and in experiment [11] were 20 µM and 19 µM, respectively.

`Nc1nc(OCC=C2CCCCC2)c2nc[nH]c2n1`: the inhibition in experiment [8] came out at 21%; in experiment [9], 12%.

Consider `C=C(C)[C@H]1CC=C(COc2nc(N)nc3[nH]cnc23)CC1`, for which the inhibition in [8] is 17%; in experiment [9], 18%.

Regarding `COCC(COc1nc(N)nc2[nH]cnc12)OC` (stereo not drawn), the inhibition in [4] worked out at 41%; in experiment [2], 49%.

`Nc1nc(OCC2COc3ccccc3O2)c2nc[nH]c2n1` (stereo not drawn): the inhibition in experiment [2] and in experiment [3] was 52% throughout.

`CC(C)C1(COc2nc(N)nc3[nH]cnc23)OCCO1` showed an IC50 in [12] of 65 µM.

As for `Nc1nc(OC[C@@H]2CCC(=O)N2)c2nc[nH]c2n1`, the results for the inhibition in [2] and in [3] were 22% and 15%, respectively.

With `Nc1nc(OCc2cccnc2)c2nc[nH]c2n1`, the inhibition was 55% in [2] and 43% in experiment [3].

For the compound `Nc1cccc(COc2nc(N)nc3[nH]cnc23)c1`, the figures for the inhibition in experiment [13] and in [2] were 52% and 65%, respectively.

In turn, `Nc1nc(OCc2ccccc2)c2[nH]cnc2n1` [6-O-BENZYLGUANINE] gave a concentration for half-maximal inhibition (IC50) in [5] of 35 µM.

Regarding `CCOc1nc(N)nc2[nH]cnc12`, the figures for the inhibition in experiment [4] and in experiment [2] were 51% and 48%, respectively.

Regarding `COc1nc(N)nc2nc[nH]c12`, the inhibition in experiment [4] amounted to 35%; in experiment [2], 36%.

Compound `CC/C=C/CCOc1nc(N)nc2[nH]cnc12` had an IC50 in experiment [5] of 69 µM.

Take `Nc1nc(OCc2ccccn2)c2nc[nH]c2n1`: the inhibition in experiment [2] turned out to be 58%; in experiment [3], 43%.

The compound `Nc1nc(OCC2=CCCC2)c2[nH]cnc2n1` yielded an IC50 in [5] of 31 µM.

Regarding `CC1(C)OC2OC(COc3nc(N)nc4[nH]cnc34)C3OC(C)(C)OC3C2O1` (stereo not drawn), the inhibition in [2] was found to be 10%; in experiment [3] it was 4%.

In turn, `CC(C)COc1nc(N)nc2[nH]cnc12` had an IC50 in experiment [5] of 42 µM. This lies in the double-digit micromolar range.

`Nc1nc(OCc2cccc(Cl)c2)c2nc[nH]c2n1`: the inhibition in [8] came to 28%; in [7], 19%.

Take `CC1(C)OC[C@@H](COc2nc(N)nc3[nH]cnc23)O1`: the inhibition in experiment [2] worked out at 46%; in experiment [3], 39%.

With `Nc1nc(OCc2ccc3ccccc3c2)c2[nH]cnc2n1`, the inhibition was found to be 12% in experiment [8] and 9% in experiment [9].

Turning to `CCCCCCCOc1nc(N)nc2[nH]cnc12`, the IC50 in experiment [5] is greater than 100 µM; in experiment [11] it was 62 µM.

The values above are taken from ChEMBL document CHEMBL1135525, “Probing the ATP ribose-binding domain of cyclin-dependent kinases 1 and 2 with O(6)-substituted guanine derivatives” (J Med Chem, 2002).
